US20260151451A1, “CYCLIC PEPTIDE DERIVATIVE COMPOSITION FOR TREATING OR PREVENTING CENTRAL NERVOUS SYSTEM INJURY/DISEASE” (DKS Co. Ltd., priority 2022, published 2026)
“And” between values parts separate entries of the source, which are not always exact repeats. Equal values may be shown once. “Also recorded” adds a separate entry of the source.

Experiments:
[1] = test system: transient focal cerebral ischemia model rat; assay: Cerebral infarct volume in transient focal cerebral ischemia model rat (Example 33; test substance given immediately after MCA recanalization); type: in vivo; settings: for Cerebral infarct volume (mm^3): tail vein, brain extracted 24 hours after MCA occlusion, mean ± S.E. of 10 rats; for Individual data of the cerebral infarct volume (mm^3): individual animals
Protocol: The activity of the compound of the present disclosure was evaluated according to the following procedure.
Compound 9 (aqueous solution (50 mg/mL) prepared by dissolving a white powder in a saturated NaHCO3 solution)
Edaravone (trade name: Radicut (registered trademark) Mitsubishi Tanabe Pharma Corporation) Vehicle
Japanese Pharmacopoeia physiological saline (hereinafter, physiological saline) (Otsuka Pharmaceutical Factory, Inc.)
Rat (strain: Crl: CD (SD)) (THE JACKSON LABORATORY JAPAN, INC.)
• Intravenous administration
Using a syringe (1 mL, Terumo Corporation) equipped with an injection needle (25G×5/8, Terumo Corporation), tail vein administration was performed immediately after MCA recanalization.
Using a syringe (1 mL, Terumo Corporation) equipped with an injection needle (25G×5/8, Terumo Corporation), tail vein administration was performed immediately after MCA recanalization and 30 minutes after MCA recanalization (actual result: ±0 minutes from the specified time, allowable range: ±3 minutes from the specified time).
• 0.2 mg/kg and 2 mg/kg
• (1) The received test substance was thawed and then divided into 4 brown glass bottles by 0.1 mL. • (2) The test substances divided into small portions were stored frozen (measured value: −24.4 to −22.6° C., allowable range: −35 to −10° C.) until use in preparation. • (3) One test substance divided into small portions for each day of administration was thawed, and 4.9 mL of physiological saline was added to prepare a 1 mg/mL administration solution . . . I • (4) From I, 0.5 mL was dispensed into a brown glass bottle, and 4.5 mL of physiological saline was added to prepare a 0.1 mg/mL administration solution. • (5) It was prepared before use. • (6) The remainder after administration was discarded.
(§1) The rat was fixed in a supine position under 2% isoflurane inhalation anesthesia (Lot No.: 234KAP, Mylan Inc., laughing gas:oxygen=7:3). A thermometer probe connected to a digital thermometer (TX1002, Yokogawa Meters & Instruments Corporation) was inserted into the rectum to perform thermoregulation during surgery, and changes in rectal temperature before and after surgery were monitored. As a result, since a decrease in rectal temperature was not observed in any rat, heating was not performed. The right common carotid artery, external carotid artery, and internal carotid artery were exposed, and the common carotid artery and external carotid artery were ligated with sutures. A nylon yarn (plug) No. 4 previously coated with silicon (Kulzer Japan Co., Ltd.) and cut to a length of 19 mm was inserted from the bifurcation of the external carotid artery and the internal carotid artery to occlude the right MCA. After MCA occlusion, the neck skin was sutured and released from anesthesia. Flexion of the contralateral forelimb on the occluded side was confirmed 30 minutes after MCA occlusion. Under 2% isoflurane inhalation anesthesia, the right common carotid artery, the right external carotid artery, and the right internal carotid artery were exposed again, the plug was removed 2 hours after MCA occlusion, and the blood flow of the right MCA was resumed. After the blood flow of the right MCA was resumed, ligation of the right internal carotid artery and suturing of the neck skin were performed to awaken the animal from anesthesia. Note that benzylpenicillin potassium (Lot No.: 00904, Meiji Seika Pharma Co., Ltd.) was administered intramuscularly at a dosage of 20,000 units/kg before the MCA occlusion surgery.
24 hours after MCA occlusion, the animal was decapitated under 2% isoflurane inhalation anesthesia (Lot No.: 234KAP, Mylan Inc., laughing gas:oxygen=7:3), and the whole brain was extracted to prepare a brain section having a thickness of 2 mm. Referring to Paxinos and Watson brain atlas [axinos G. and Watson C. The rat brain in stereotaxic coordinates, second edition. […]

[2] = test system: transient focal cerebral ischemia model rat; assay: Cerebral infarct volume in transient focal cerebral ischemia (MCA occlusion/recanalization) model rat; type: in vivo; settings: for Cerebral infarct volume compared with the vehicle group: Dunnett's multiple comparison test; for Cerebral infarct volume: group mean ± S.E., n=10, brain extracted 24 hours after MCA occlusion
Excerpt: as §1, with “248KKY, Viatris Pharmaceutical Co., Ltd.,” for “234KAP, Mylan Inc.,”
24 hours after MCA occlusion, the animal was decapitated under 2% isoflurane inhalation anesthesia (Lot No.: 248KKY, Viatris Pharmaceutical Co., Ltd., laughing gas:oxygen=7:3), and the whole brain was extracted to prepare a brain section having a thickness of 2 mm. Referring to Paxinos and Watson brain atlas [Paxinos G. and Watson C. The rat brain in stereotaxic coordinates, second edition. San Diego, New York, Boston, London, Sydney, Tokyo, Toronto: Academic Press Inc.; 1986.], the brain sections were set at positions where coronal planes of 4 mm anterior to Bregma, 2 mm anterior to Bregma, above Bregma, 2 mm posterior to Bregma, 4 mm posterior to Bregma, and 6 mm posterior to Bregma were obtained. The brain sections were immersed in a 1% (W/V) 2,3,5-triphenyltetrazolium chloride (Lot No.: M7B5587, Nacalai Tesque Inc.) solution at room temperature, stained, and photographed. From the obtained photograph, brain sections (infarction site and non-infarction site) were traced on an OHP sheet. The traced image was captured by a scanner (Seiko Epson Corporation), image analysis was performed using WinROOF2015 (MITANI CORPORATION), a cerebral infarct area was obtained as a measured value, and a cerebral infarct volume between 4 mm anterior to Bregma and 6 mm posterior to Bregma was calculated from the obtained value.
[formula] • V: Cerebral infarct volume • a: Cerebral infarct area on section of 4 mm anterior to Bregma • b: Cerebral infarct area on section of 2 mm anterior to Bregma • c: Cerebral infarct area on section of Bregma • d: Cerebral infarct area on section of 2 mm posterior to Bregma • e: Cerebral infarct area on section of 4 mm posterior to Bregma • f: Cerebral infarct area on section of 6 mm posterior to Bregma
• Calculation of cerebral infarct volume (mm^3)
The employed data were expressed as a mean±standard error.
The following combinations were performed.

Compound | Cerebral infarct volume (mm^3) ([1]; Compound 9 0.2 mg/kg, immediately after MCA recanalization, 2 hours MCA occlusion, 0.2 mg/kg) | Statistical difference of cerebral infarct volume from the vehicle group (Dunnett's multiple comparison test) ([1]; Compound 9 2 mg/kg i.v.) | Cerebral infarct volume (mm^3) ([1]; Compound 9 2 mg/kg, immediately after MCA recanalization, 2 hours MCA occlusion, 2 mg/kg) | Cerebral infarct reduction action: cerebral infarct volume compared with the vehicle group ([1]; Compound 9 groups, 0.2 mg/kg and 2 mg/kg i.v.) | Individual data of the cerebral infarct volume (mm^3) ([1]; Compound 9 0.2 mg/kg group (n = 10), 0.2 mg/kg) | Individual data of the cerebral infarct volume (mm^3) ([1]; Compound 9 2 mg/kg group (n = 10), 2 mg/kg) | Cerebral infarct volume compared with the vehicle group ([2]; administered 30 minutes after MCA recanalization) | Cerebral infarct volume compared with the vehicle group ([2]; administered 1 hour after MCA recanalization, p value=0.0525) | Cerebral infarct volume ([2]; 2 mg/kg administered 30 minutes after MCA reperfusion) | Cerebral infarct volume ([2]; 2 mg/kg administered 1 hour after MCA reperfusion) | Cerebral infarct volume, individual data ([2]; individual animals Nos. 202-214, administered 30 minutes after MCA reperfusion) | Cerebral infarct volume, individual data ([2]; individual animals Nos. 301-314, second Compound 9 group (head prints 30 minutes after MCA reperfusion; mean matches the 1 hour group)) | Cerebral infarct volume compared with the vehicle group (Student's t-test) ([1]; Edaravone 3 mg/kg per dose i.v., twice) | Cerebral infarct volume (mm^3) ([1]; Edaravone 3 mg/kg per dose, immediately after and 30 minutes after MCA recanalization) | Individual data of the cerebral infarct volume (mm^3) ([1]; Edaravone 3 mg/kg per dose group (n = 10)) | Cerebral infarct volume ([2]; Edaravone group 3 mg/kg) | Cerebral infarct volume, individual data ([2]; individual animals Nos. 401-414, Edaravone group)
CC[C@@]1(C)Oc2cc(ccc2O)C[C@H](NC)C(=O)N[C@@H](C(C)C)C(=O)N[C@@H]1C(=O)N[C@@H](CC(=O)O)C(=O)O [Compound 9] | 336.9±14.2 mm^3 and 336.9 mm^3 | a statistically significant difference was observed in the 2 mg/kg group | 301.8±12.8 mm^3 and 301.8 ± 12.8 ^** mm^3 and 301.8 mm^3 | all showed low values; also recorded: has an ameliorating effect on cerebral infarct after cerebrovascular disorder | 341.9 mm^3 and 350.2 mm^3 and 331.8 mm^3 and 366.5 mm^3 and 372.7 mm^3 and 219.1 mm^3 and 318.3 mm^3 and 339.3 mm^3 and 369.8 mm^3 and 359.8 mm^3 | 264.4 mm^3 and 343.3 mm^3 and 342.4 mm^3 and 374.1 mm^3 and 279.7 mm^3 and 273.1 mm^3 and 293.4 mm^3 and 251.2 mm^3 and 316.6 mm^3 and 279.6 mm^3 | ameliorating effect on cerebral infarct | improvement tendency | 250.0±20.5 mm^3 and 250.0 ± 20.5 * mm^3 and 250.0 mm^3 | 260.4±13.9 mm^3 and 260.4 mm^3 | 254.3 mm^3 and 319.8 mm^3 and 274.6 mm^3 and 210.2 mm^3 and 133.9 mm^3 and 192.3 mm^3 and 272.2 mm^3 and 296.0 mm^3 and 201.4 mm^3 and 345.5 mm^3 | 253.1 mm^3 and 243.0 mm^3 and 355.2 mm^3 and 220.7 mm^3 and 261.4 mm^3 and 250.7 mm^3 and 192.0 mm^3 and 256.3 mm^3 and 272.3 mm^3 and 299.0 mm^3 |  |  |  |  | 
CC1=NN(c2ccccc2)C(=O)C1 [Edaravone, reference compound] |  |  |  |  |  |  |  |  |  |  |  |  | showed low values, and a statistically significant difference was observed; also recorded: showed a lower value than that of the vehicle group, and a statistically significant difference was observed | 292.8±14.2 mm^3 and 292.8 ± 14.2 ^## mm^3 and 292.8 mm^3 | 248.4 mm^3 and 324.8 mm^3 and 282.1 mm^3 and 375.0 mm^3 and 308.0 mm^3 and 319.8 mm^3 and 217.2 mm^3 and 299.1 mm^3 and 253.8 mm^3 | 232.2±14.6 mm^3 and 232.2 ± 14.6 ^## mm^3 and 232.2 mm^3 | 140.7 mm^3 and 218.3 mm^3 and 221.0 mm^3 and 170.0 mm^3 and 231.1 mm^3 and 268.2 mm^3 and 268.9 mm^3 and 278.6 mm^3 and 268.4 mm^3 and 257.0 mm^3
